15 molecules from US8871753B2, “Macrocyclic compounds and their use as kinase inhibitors” (Incyte Corporation, priority 2008, dated 2014) can be followed below.

What all share (format): biochemical
The target of experiment [1] is T1, human JAK1 (a.a. 837-1142) (Homo sapiens, UniProt P23458).
T1 construct: human JAK1 (a.a. 837-1142); His tag (N); made in house; host or cells: insect cells (baculovirus)
Kind of experiment: In vitro JAK kinase assay (HTRF, phosphorylation of a biotinylated peptide), JAK1. The following applies: read-out: JAK1 IC50. The gist of the method: (§1)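 Phosphorylation of a biotinylated peptide by the JAK kinase domain, detected by HTRF with Eu-Py20 and SA-APC. ATP was 90 μM for JAK1, 30 μM for JAK2 and 3 μM for JAK3. Reactions ran 1 h at room temperature and were stopped with EDTA, followed by 40 min antibody binding.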

Experiment [2] deals with T2, human JAK2 (a.a. 828-1132) (Homo sapiens, UniProt O60674).
T2 construct: JAK2 (a.a. 828-1132); His tag (N); made in house; host or cells: insect cells (baculovirus)
The experiment is described as follows: In vitro JAK kinase assay (HTRF, phosphorylation of a biotinylated peptide), JAK2. Summed up: as §1
In general terms: In TR-FRET formats the signal depends on donor and acceptor labels being close together.

The target of a further experiment is TYK2 (Homo sapiens, UniProt P29597). The experiment is described as follows: TYK2 kinase inhibition (Table A1).
In experiment [3] the target is T3, Recombinant Human Anaplastic Lymphoma Kinase (Homo sapiens, UniProt Q9UM73).
T3 construct: purchased Invitrogen, Carlsbad, Calif
Kind of experiment: ALK HTRF kinase assay. The conditions noted are these: for ALK % of inhibition at a concentration of 500 nM or 1 mM: compound at 500 nM or 1 mM, 90 μM ATP; for pIC50: Table B1, cells without percent sign. Summed up:
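Recombinant human ALK phosphorylated a biotinylated synthetic peptide. Phosphotyrosine was detected by TR-FRET between a Eu-labelled anti-phosphotyrosine antibody and streptavidin-allophycocyanin. IC50 values came from fitting signal against inhibitor concentration to a four-parameter logistic equation with variable Hill slope.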

Experiment [4] has as its target T4, human JAK3 (a.a. 781-1124) (Homo sapiens, UniProt P52333).
T4 construct: JAK3 (a.a. 781-1124); His tag (N); made in house; host or cells: insect cells (baculovirus)
The experiment is described as follows: In vitro JAK kinase assay (HTRF, phosphorylation of a biotinylated peptide), JAK3. The gist of the method: as §1

The mark [5] stands for this setting: method AA1 (90 μM ATP) or AA2 (1000 μM ATP), not stated per value.
Where [6] appears, read: method AA1 (30 μM ATP) or AA2 (1000 μM ATP), not stated per value.
Where [7] appears, read: method AA1 (3 μM ATP) or AA2 (1000 μM ATP), not stated per value.

pIC50: −log10 of the molar value. Counter-ions that a name gives are not always drawn. Like-named read-outs stand apart in the source and are kept apart here.

In general, pIC50 refers to −log10 of the IC50, conventionally taken in molar units.

T4 sequence (P52333 781-1124): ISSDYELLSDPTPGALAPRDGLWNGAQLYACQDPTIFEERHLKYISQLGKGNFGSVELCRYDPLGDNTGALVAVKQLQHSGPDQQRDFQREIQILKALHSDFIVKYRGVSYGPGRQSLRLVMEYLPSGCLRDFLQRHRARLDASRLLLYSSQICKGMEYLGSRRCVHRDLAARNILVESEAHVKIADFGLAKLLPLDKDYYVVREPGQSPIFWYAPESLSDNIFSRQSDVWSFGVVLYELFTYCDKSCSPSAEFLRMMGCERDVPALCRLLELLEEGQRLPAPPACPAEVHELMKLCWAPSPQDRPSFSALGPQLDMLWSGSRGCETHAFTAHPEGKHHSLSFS
T2 sequence (O60674 828-1132): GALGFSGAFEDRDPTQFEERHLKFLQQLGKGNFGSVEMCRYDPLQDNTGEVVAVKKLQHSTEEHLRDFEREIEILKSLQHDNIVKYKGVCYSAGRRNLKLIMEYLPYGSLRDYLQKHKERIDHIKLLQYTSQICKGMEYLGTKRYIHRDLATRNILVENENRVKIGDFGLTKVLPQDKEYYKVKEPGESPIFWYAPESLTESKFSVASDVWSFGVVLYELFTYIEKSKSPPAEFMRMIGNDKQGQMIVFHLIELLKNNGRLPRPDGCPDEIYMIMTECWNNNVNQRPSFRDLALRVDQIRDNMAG
T1 sequence (P23458 849-1154): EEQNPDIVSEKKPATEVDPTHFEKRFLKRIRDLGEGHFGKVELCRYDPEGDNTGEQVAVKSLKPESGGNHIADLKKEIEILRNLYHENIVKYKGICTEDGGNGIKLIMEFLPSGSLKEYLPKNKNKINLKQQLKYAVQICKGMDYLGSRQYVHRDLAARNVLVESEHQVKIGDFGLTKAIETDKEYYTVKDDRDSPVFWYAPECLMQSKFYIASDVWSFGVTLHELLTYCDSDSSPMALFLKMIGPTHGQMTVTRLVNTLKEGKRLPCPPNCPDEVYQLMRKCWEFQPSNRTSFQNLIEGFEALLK
Sequence of TYK2 (P29597 whole entry): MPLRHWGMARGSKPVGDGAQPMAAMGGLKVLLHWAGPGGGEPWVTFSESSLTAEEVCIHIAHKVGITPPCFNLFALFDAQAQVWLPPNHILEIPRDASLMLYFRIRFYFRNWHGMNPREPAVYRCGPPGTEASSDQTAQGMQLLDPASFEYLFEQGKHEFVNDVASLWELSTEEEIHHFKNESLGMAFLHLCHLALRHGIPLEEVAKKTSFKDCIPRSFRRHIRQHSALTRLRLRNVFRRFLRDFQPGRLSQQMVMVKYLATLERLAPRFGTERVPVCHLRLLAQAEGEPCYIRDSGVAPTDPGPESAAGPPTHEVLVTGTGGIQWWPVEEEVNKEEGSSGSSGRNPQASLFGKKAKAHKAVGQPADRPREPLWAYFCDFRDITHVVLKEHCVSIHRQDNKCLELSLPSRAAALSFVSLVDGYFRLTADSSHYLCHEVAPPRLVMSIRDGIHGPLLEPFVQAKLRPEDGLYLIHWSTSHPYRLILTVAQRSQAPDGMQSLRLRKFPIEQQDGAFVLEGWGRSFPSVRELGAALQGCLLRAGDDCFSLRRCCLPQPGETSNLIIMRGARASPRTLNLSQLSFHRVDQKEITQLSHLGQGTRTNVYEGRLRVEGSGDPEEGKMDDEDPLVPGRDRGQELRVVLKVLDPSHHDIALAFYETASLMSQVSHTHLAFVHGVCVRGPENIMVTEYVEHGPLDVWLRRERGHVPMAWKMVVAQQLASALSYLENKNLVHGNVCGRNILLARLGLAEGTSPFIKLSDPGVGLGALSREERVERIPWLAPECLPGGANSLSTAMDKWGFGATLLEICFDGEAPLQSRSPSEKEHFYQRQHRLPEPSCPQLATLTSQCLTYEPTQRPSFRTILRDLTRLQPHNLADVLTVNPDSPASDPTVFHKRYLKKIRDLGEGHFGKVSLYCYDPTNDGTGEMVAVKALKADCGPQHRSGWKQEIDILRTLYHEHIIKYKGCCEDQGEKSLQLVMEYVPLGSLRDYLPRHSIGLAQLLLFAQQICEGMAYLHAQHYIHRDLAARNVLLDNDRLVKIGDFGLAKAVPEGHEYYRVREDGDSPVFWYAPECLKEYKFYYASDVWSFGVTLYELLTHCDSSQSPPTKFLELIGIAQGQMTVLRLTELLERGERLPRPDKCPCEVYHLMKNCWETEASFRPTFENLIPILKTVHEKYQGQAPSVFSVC
T3 sequence (Q9UM73 19-1620): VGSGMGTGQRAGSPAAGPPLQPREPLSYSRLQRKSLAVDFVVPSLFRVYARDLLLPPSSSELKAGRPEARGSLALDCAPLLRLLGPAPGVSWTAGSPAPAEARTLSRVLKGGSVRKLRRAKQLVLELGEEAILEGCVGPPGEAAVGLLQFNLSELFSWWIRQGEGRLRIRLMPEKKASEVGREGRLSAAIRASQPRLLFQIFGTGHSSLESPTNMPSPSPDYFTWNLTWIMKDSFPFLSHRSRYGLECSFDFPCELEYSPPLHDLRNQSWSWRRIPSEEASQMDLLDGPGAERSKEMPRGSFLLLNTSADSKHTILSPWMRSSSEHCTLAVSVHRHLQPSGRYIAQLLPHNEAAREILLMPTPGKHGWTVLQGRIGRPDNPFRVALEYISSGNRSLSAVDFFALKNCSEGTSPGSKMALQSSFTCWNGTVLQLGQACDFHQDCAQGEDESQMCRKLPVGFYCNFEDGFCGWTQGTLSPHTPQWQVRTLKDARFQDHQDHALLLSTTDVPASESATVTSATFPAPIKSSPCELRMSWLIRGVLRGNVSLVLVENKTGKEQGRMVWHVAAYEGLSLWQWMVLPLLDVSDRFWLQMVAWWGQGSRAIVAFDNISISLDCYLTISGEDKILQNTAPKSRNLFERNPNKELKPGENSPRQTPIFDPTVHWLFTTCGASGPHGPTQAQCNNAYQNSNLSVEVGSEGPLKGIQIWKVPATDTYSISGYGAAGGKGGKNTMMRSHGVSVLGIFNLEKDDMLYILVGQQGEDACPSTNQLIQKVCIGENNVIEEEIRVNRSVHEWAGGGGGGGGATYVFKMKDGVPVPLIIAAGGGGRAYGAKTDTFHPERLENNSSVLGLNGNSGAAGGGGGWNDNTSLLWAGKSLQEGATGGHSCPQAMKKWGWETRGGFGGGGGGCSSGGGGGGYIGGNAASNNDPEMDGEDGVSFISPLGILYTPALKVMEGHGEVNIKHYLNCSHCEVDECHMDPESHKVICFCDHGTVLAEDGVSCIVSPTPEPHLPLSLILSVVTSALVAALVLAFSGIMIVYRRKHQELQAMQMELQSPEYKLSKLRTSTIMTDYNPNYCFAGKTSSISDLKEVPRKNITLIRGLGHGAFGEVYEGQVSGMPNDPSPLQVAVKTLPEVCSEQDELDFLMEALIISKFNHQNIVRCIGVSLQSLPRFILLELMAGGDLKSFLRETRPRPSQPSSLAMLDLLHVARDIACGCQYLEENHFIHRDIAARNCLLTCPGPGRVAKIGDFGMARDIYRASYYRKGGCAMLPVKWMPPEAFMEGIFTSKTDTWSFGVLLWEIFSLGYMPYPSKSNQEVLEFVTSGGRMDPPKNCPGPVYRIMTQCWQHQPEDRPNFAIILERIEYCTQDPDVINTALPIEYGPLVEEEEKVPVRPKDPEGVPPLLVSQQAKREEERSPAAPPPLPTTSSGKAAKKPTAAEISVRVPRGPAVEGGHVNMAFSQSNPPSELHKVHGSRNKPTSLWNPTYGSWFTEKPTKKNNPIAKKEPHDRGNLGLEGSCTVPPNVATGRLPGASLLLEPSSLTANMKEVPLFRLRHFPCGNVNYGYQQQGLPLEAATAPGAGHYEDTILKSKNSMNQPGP

Turning to `O=C(CC1CCN(c2ccncc2)CC1)Nc1ccc2cc1CCc1cncc(c1)Nc1ncc(Cl)c(n1)N2` [Example A242, N-[6-Chloro-2,4,8,18,22-pentaazatetracyclo[14.3.1.1(3,7).1(9,13)]docosa-1(20),3(22),4,6,9(21),10,12,16,18-nonaen-12-yl]-2-(1-pyridin-4-ylpiperidin-4-yl)acetamide tris(trifluoroacetate)], the pIC50 in experiment [1] (setting [5]) was 7.40; in experiment [2] (setting [6]), less than 6.40; at TYK2, less than 6.40; in experiment [4] (setting [7]), less than 6.40. Moreover, the “ALK % of inhibition at a concentration of 500 nM or 1 mM” value (“ALK % of inhibition” for short) in experiment [3] is given as 31%.

For the molecule `O=C(CC1CCN(c2ccncc2F)CC1)Nc1ccc2cc1CCc1cncc(c1)Nc1ncc(Cl)c(n1)N2` [Example A243, N-[6-Chloro-2,4,8,18,22-pentaazatetracyclo[14.3.1.1(3,7).1(9,13)]docosa-1(20),3(22),4,6,9(21),10,12,16,18-nonaen-12-yl]-2-[1-(3-fluoropyridin-4-yl)piperidin-4-yl]acetamide tris(trifluoroacetate)], the pIC50 in experiment [1] (setting [5]) is 7.70; in experiment [2] (setting [6]) it was 6.92; at TYK2 it was 6.63; in experiment [4] (setting [7]), less than 6.40. Also, in experiment [3], the “ALK % of inhibition” value stood at 38%.

Turning to `O=C(CC1CCN(c2ccnc(F)c2)CC1)Nc1ccc2cc1CCc1cncc(c1)Nc1ncc(Cl)c(n1)N2` [Example A244, N-[6-Chloro-2,4,8,18,22-pentaazatetracyclo[14.3.1.1(3,7).1(9,13)]docosa-1(20),3(22),4,6,9(21),10,12,16,18-nonaen-12-yl]-2-[1-(2-fluoropyridin-4-yl)piperidin-4-yl]acetamide tris(trifluoroacetate)], the pIC50 in experiment [1] (setting [5]) is 7.52; in experiment [2] (setting [6]), 6.77; against TYK2, 6.77; in experiment [4] (setting [7]) it was less than 6.40. The “ALK % of inhibition” value in experiment [3] was 66%.

In the case of `N#CCC(=O)N1CCC(CC(=O)Nc2ccc3cc2CCc2cncc(c2)Nc2ncc(Cl)c(n2)N3)CC1` [Example A245, N-[6-Chloro-2,4,8,18,22-pentaazatetracyclo[14.3.1.1(3,7).1(9,13)]docosa-1(20),3(22),4,6,9(21),10,12,16,18-nonaen-12-yl]-2-[1-(cyanoacetyl)piperidin-4-yl]acetamide bis(trifluoroacetate)], the pIC50 in experiment [1] (setting [5]) was 8.49; in experiment [2] (setting [6]), 6.93; at TYK2, 7.39; in experiment [4] (setting [7]), less than 6.40. Further, in experiment [3], the “ALK % of inhibition” value amounted to 47%.

Turning to `O=C(CC1CCN(c2ncco2)CC1)Nc1ccc2cc1CCc1cncc(c1)Nc1ncc(Cl)c(n1)N2` [Example A246, N-[6-Chloro-2,4,8,18,22-pentaazatetracyclo[14.3.1.1(3,7).1(9,13)]docosa-1(20),3(22),4,6,9(21),10,12,16,18-nonaen-12-yl]-2-[1-(1,3-oxazol-2-yl)piperidin-4-yl]acetamide tris(trifluoroacetate)], the pIC50 in experiment [1] (setting [5]) was 7.82; in experiment [2] (setting [6]), 6.92; at TYK2, less than 6.70; in experiment [4] (setting [7]) it was less than 6.70. In experiment [3], the “ALK % of inhibition” value was found to be 39%.

Take `Cc1cc(N2CCC(CC(=O)Nc3ccc4cc3CCc3cncc(c3)Nc3ncc(Cl)c(n3)N4)CC2)no1` [Example A247, N-[6-Chloro-2,4,8,18,22-pentaazatetracyclo[14.3.1.1(3,7).1(9,13)]docosa-1(20),3(22),4,6,9(21),10,12,16,18-nonaen-12-yl]-2-[1-(5-methylisoxazol-3-yl)piperidin-4-yl]acetamide bis(trifluoroacetate)]: the pIC50 in experiment [1] (setting [5]) is 8.16; in experiment [2] (setting [6]), 7.14; against TYK2, 7.08; in experiment [4] (setting [7]) it was less than 6.70. Moreover, the “ALK % of inhibition” value in experiment [3] came to 35%.

`Cc1cc(N2CCC(CC(=O)Nc3ccc4cc3CCc3cccc(c3)Nc3ncc(Cl)c(n3)N4)CC2)no1` [Example A248, N-[6-Chloro-2,4,8,22-tetraazatetracyclo[14.3.1.1(3,7).1(9,13)]docosa-1(20),3(22),4,6,9(21),10,12,16,18-nonaen-12-yl]-2-[1-(5-methylisoxazol-3-yl)piperidin-4-yl]acetamide trifluoroacetate]: the pIC50 is 8.06 in experiment [1] (setting [5]), 7.52 in experiment [2] (setting [6]), 7.09 at TYK2 and less than 6.70 in experiment [4] (setting [7]). For the same molecule, the “ALK % of inhibition” value in experiment [3] is listed as 50%.

In the case of `O=C(COc1ccc2cc1CCc1cncc(c1)Nc1ncc(Cl)c(n1)N2)N1CCn2c(nnc2C(F)(F)F)C1` [Example A249, 6-Chloro-12-{2-oxo-2-[3-(trifluoromethyl)-5,6-dihydro[1,2,4]triazolo[4,3-a]pyrazin-7(8H)-yl]ethoxy}-2,4,8,18,22pentaazatetracyclo[14.3.1.1(3,7).1(9,13)]docosa1(20),3(22),4,6,9(21),10,12,16,18-nonaene bis(trifluoroacetate)], the pIC50 is 6.65 in experiment [1] (setting [5]), less than 6.40 in experiment [2] (setting [6]), less than 6.40 against TYK2 and less than 6.40 in experiment [4] (setting [7]). Also, the “ALK % of inhibition” value in experiment [3] is on record as 28%.

Turning to `Cc1cnc2nc1Nc1cccc(c1)/C=C\c1cccc(c1)N2` [Example B1, (14Z)-6-Methyl-2,4,8,22-tetraazatetracyclo[14.3.1.1(3,7).1(9,13)]docosa-1(20),3(22),4,6,9(21),10,12,14,16,18-decaene trifluoroacetate], the pIC50 in experiment [1] (Table B1) was 7.96; in experiment [2] (Table B1) it was 8.29; at TYK2 (Table B1) it was 7.77; in experiment [3], 6.10; in experiment [4] (Table B1), less than 7.00.

With `Cc1cnc2nc1Nc1cccc(c1)CCc1cccc(c1)N2` [Example B2, 6-Methyl-2,4,8,22-tetraazatetracyclo[14.3.1.1(3,7).1(9,13)]docosa-1(20),3(22),4,6,9(21),10,12,16,18-nonaene trifluoroacetate], the pIC50 was 7.96 in experiment [1] (Table B1); 8.08 in experiment [2] (Table B1); 7.72 against TYK2 (Table B1); less than 6.00 in experiment [3]; 6.56 in experiment [4] (Table B1).

As for `Brc1cnc2nc1Nc1cccc(c1)CCc1cccc(c1)N2` [Example B3, 6-Bromo-2,4,8,22-tetraazatetracyclo[14.3.1.1(3,7).1(9,13)]docosa-1(20),3(22),4,6,9(21),10,12,16,18-nonaene trifluoroacetate], the pIC50 in experiment [1] (Table B1) is 8.04; in experiment [2] (Table B1) it was 8.46; on TYK2 (Table B1), 7.82; in experiment [3], 6.01; in experiment [4] (Table B1), 7.17.

On to `COC(=O)c1cc2cc(c1)Nc1nc(ncc1Cl)Nc1cccc(c1)CC2` [Example B5, Methyl 6-chloro-2,4,8,22-tetraazatetracyclo[14.3.1.1(3,7).1(9,13)]docosa-1(20),3(22),4,6,9(21),10,12,16,18-nonaene-11-carboxylate trifluoroacetate], for which the pIC50 is 6.97 in experiment [1] (Table B1); 7.36 in experiment [2] (Table B1); 6.78 at TYK2 (Table B1); less than 6.00 in experiment [3]; 7.08 in experiment [4] (Table B1).

On to `O=C(O)c1cc2cc(c1)Nc1nc(ncc1Cl)Nc1cccc(c1)CC2` [Example B6, 6-Chloro-2,4,8,22-tetraazatetracyclo[14.3.1.1(3,7).1(9,13)]docosa-1(20),3(22),4,6,9(21),10,12,16,18-nonaene-11-carboxylic acid trifluoroacetate], for which the pIC50 was less than 6.00 in experiment [1] (Table B1); 6.10 in experiment [2] (Table B1); less than 6.00 against TYK2 (Table B1); less than 6.00 in experiment [3]; less than 6.00 in experiment [4] (Table B1).

`O=C(Nc1ccc(F)c(Cl)c1)c1cc2cc(c1)Nc1nc(ncc1Cl)Nc1cccc(c1)CC2` [Example B7, 6-Chloro-N-(3-chloro-4-fluorophenyl)-2,4,8,22-tetraazatetracyclo[14.3.1.1(3,7).1(9,13)]docosa-1(20),3(22),4,6,9(21),10,12,16,18-nonaene-11-carboxamide trifluoroacetate]: the pIC50 in experiment [1] (Table B1) is less than 6.00; in experiment [2] (Table B1), 6.15; at TYK2 (Table B1) it was less than 6.00; in experiment [3], less than 5.00; in experiment [4] (Table B1), less than 6.00.

On to `CN1CCN(C(=O)c2cc3cc(c2)Nc2nc(ncc2Cl)Nc2cccc(c2)CC3)CC1` [Example B8, 6-Chloro-11-[(4-methylpiperazin-1-yl)carbonyl]-2,4,8,22-tetraazatetracyclo[14.3.1.1(3,7).1(9,13)]docosa-1(20),3(22),4,6,9(21),10,12,16,18-nonaene trifluoroacetate], for which the pIC50 was 6.30 in experiment [1] (Table B1); 6.46 in experiment [2] (Table B1); less than 6.00 against TYK2 (Table B1); less than 6.00 in experiment [3]; less than 6.00 in experiment [4] (Table B1).
